From patent publication US11345681B1, “Inhibitors of fibroblast growth factor receptor kinases” (Kinnate Biopharma Inc., priority 2020, dated 2022)
Like-named read-outs stand apart in the source and are kept apart here.

Target: Wild type FGFR2 (Homo sapiens (Human), UniProt P21802)
Assay: FGFR2 kinase assay (fluorescence-based microfluidic mobility shift assay)
Assay type: biochemical
[1] = wild type FGFR2 0.06 nM, 100 μM ATP, 80 minutes at room temperature, class symbols
[2] = wild type FGFR2 0.06 nM, 100 μM ATP, 80 minutes at room temperature, given as numeric bound

Sequence of Wild type FGFR2 (P21802 22-821): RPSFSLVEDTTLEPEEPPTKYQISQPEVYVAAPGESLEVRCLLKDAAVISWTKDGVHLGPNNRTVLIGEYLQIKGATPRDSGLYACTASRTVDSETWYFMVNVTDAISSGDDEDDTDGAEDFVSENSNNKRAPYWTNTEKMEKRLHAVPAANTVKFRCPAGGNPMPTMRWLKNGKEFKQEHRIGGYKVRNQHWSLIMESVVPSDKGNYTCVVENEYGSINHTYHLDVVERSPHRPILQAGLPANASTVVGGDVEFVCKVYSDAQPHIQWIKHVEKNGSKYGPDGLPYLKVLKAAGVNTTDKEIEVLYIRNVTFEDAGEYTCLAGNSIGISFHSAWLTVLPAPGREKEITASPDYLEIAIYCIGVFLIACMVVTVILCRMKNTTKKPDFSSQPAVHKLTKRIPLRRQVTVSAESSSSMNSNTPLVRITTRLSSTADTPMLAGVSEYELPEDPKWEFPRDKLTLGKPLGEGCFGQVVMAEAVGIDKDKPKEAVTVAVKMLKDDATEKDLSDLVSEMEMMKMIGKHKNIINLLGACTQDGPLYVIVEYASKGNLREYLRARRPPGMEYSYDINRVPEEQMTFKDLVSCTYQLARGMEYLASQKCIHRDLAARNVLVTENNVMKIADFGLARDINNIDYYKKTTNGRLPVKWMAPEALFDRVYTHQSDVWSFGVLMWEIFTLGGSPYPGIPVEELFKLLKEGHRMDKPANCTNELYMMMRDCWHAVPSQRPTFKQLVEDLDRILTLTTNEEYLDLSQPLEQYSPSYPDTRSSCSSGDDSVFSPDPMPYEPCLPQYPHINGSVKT

IC50 [1] [µM]	SMILES	also measured
≤ 0.1	C=CC(=O)N1C[C@@H](n2nc(C#Cc3cc4ncn(C5COC5)c4cc3F)c(C(N)=O)c2NC)C[C@@H]1COC [Example 234, 3-{2-[6-Fluoro-1-(oxetan-3-yl)-1,3-benzodiazol-5-yl]ethynyl}-1-[(3S,5R)-5-(methoxymethyl)-1-(prop-2-enoyl)pyrrolidin-3-yl]-5-(methylamino)pyrazole-4-carboxamide]	–
≤ 0.1	C=CC(=O)N1C[C@@H](n2nc(C#Cc3cc4ncn(C5CC5)c4cc3F)c(C(N)=O)c2NC)C[C@@H]1CF [Example 176, 1-((3S,5R)-1-acryloyl-5-(fluoromethyl)pyrrolidin-3-yl)-3-((1-cyclopropyl-6-fluoro-1H-benzo[d]imidazol-5-yl)ethynyl)-5-(methylamino)-1H-pyrazole-4-carboxamide]	–
≤ 0.1	C=CC(=O)N1C[C@@H](n2nc(C#Cc3cc4nc(C)n(C5CC5)c4cc3Cl)c(C(N)=O)c2NC)C[C@@H]1[C@H](C)O [Example 221, 1-((3S,5R)-1-Acryloyl-5-((S)-1-hydroxyethyl)pyrrolidin-3-yl)-3-((6-chloro-1-cyclopropyl-2-methyl-1H-benzo[d]imidazol-5-yl)ethynyl)-5-(methylamino)-1H-pyrazole-4-carboxamide]	–
≤ 0.1	C=CC(=O)N1C[C@@H](n2nc(C#Cc3cc4nc(C)n(C5CC5)c4cc3Cl)c(C(N)=O)c2NCCO)C[C@@H]1COC [Example 253, 1-((3S,5R)-1-Acryloyl-5-(methoxymethyl)pyrrolidin-3-yl)-3-((6-chloro-1-cyclopropyl-2-methyl-1H-benzo[d]imidazol-5-yl)ethynyl)-5-((2-hydroxyethyl)amino)-1H-pyrazole-4-carboxamide]	–
≤ 0.1	C=CC(=O)N1C[C@@H](n2nc(C#Cc3cc4ncc(C)n4cc3F)c(C(N)=O)c2NC)C[C@@H]1COC [Example 257, 1-((3S,5R)-1-Acryloyl-5-(methoxymethyl)pyrrolidin-3-yl)-3-((6-fluoro-3 methylimidazo[1,2-a]pyridin-7-yl)ethynyl)-5-(methylamino)-1H-pyrazole-4-carboxamide]	–
≤ 0.1	C=CC(=O)N1C[C@@H](n2nc(C#Cc3c(F)cc4c(ncn4C4CC4)c3F)c(C(N)=O)c2N)C[C@@H]1CO [Example 201, 5-Amino-3-[2-(1-cyclopropyl-4,6-difluoro-1,3-benzodiazol-5-yl)ethynyl]-[(3S,5R)-5-(hydroxymethyl)-1-(prop-2-enoyl)pyrrolidin-3-yl]pyrazole-4-carboxamide]	–
≤ 0.1	C=CC(=O)N1C[C@@H](n2nc(C#Cc3c(F)cc4c(ncn4C4CC4)c3F)c(C(N)=O)c2NCCO)C[C@@H]1COC [Example 251, 3-[2-(1-Cyclopropyl-4,6-difluoro-1,3-benzodiazol-5-yl)ethynyl]-5-[(2-hydroxyethyl)amino]-1-[(3S,5R)-5-(methoxymethyl)-1-(prop-2-enoyl)pyrrolidin-3-yl]pyrazole-4-carboxamide]	–
≤ 0.1	C=CC(=O)N1C[C@@H](n2nc(C#Cc3cc4nc(C)n(C5CC5)c4cc3F)c(C(N)=O)c2NC)C[C@@H]1[C@@H](C)O [Example 224, 3-[2-(1-Cyclopropyl-6-fluoro-2-methyl-1,3-benzodiazol-5-yl)ethynyl]-1-[(3S,5R)-5-[(1R)-1-hydroxyethyl]-1-(prop-2-enoyl)pyrrolidin-3-yl]-5-(methylamino)pyrazole-4-carboxamide]	–
≤ 0.1	C=CC(=O)N1CC(n2nc(C#Cc3cc4ncn(CC)c4cc3Cl)c(C(N)=O)c2N)C1 [Example 209, 5-Amino-3-[2-(6-chloro-1-ethyl-1,3-benzodiazol-5-yl)ethynyl]-1-[1-(prop-2-enoyl)azetidin-3-yl]pyrazole-4-carboxamide]	–
≤ 0.1	C=CC(=O)N1CC(n2nc(C#Cc3cc4ncn(C5CC5)c4cc3F)c(C(N)=O)c2N)C1 [Example 202, 5-Amino-3-[2-(1-cyclopropyl-6-fluoro-1,3-benzodiazol-5-yl)ethynyl]-1-[1-(prop-2-enoyl)azetidin-3-yl]pyrazole-4-carboxamide]	–

The remaining lines, values behind:

SMILES	IC50 [1] [µM]	also measured
C=CC(=O)N1C[C@@H](n2nc(C#Cc3ccc4scnc4c3)c(C(N)=O)c2NC)C[C@@H]1COC [Example 103, 3-[2-(1,3-Benzothiazol-5-yl)ethynyl]-1-[(3S,5R)-5-(methoxymethyl)-1-(prop-2-enoyl)pyrrolidin-3-yl]-5-(methylamino)pyrazole-4-carboxamide]	≤ 0.1	–
C=CC(=O)N1C[C@@H](n2nc(C#Cc3ccc4[nH]c(C5CC5)nc4c3)c(C(N)=O)c2NC)C[C@@H]1COC [Example 42, 3-[2-(2-cyclopropyl-1H-1,3-benzodiazol-5-yl)ethynyl]-1-[(3S,5R)-5-(methoxymethyl)-1-(prop-2-enoyl)pyrrolidin-3-yl]-5-(methylamino)pyrazole-4-carboxamide]	≤ 0.1	–
C=CC(=O)N1C[C@@H](n2nc(C#Cc3ccc4c(cnn4CC)c3)c(C(N)=O)c2NC)C[C@@H]1COC [Example 14]	≤ 0.1	–
C=CC(=O)N1C[C@@H](n2nc(C#Cc3cnc4nccn4c3)c(C(N)=O)c2NC)C[C@@H]1COC [Example 57, 3-(2-[Imidazo[1,2-a]pyrimidin-6-yl]ethynyl)-1-[(3S,5R)-5-(methoxymethyl)-1-(prop-2-enoyl)pyrrolidin-3-yl]-5-(methylamino)pyrazole-4-carboxamide]	–	IC50 [2]: > 0.5 µM
C=CC(=O)N1C[C@@H](n2nc(C#Cc3cc4nc(C)[nH]c4cc3Cl)c(C(N)=O)c2NC)C[C@@H]1COC [Example 98, 3-[2-(6-Chloro-2-methyl-1R-1,3-benzodiazol-5-yl)ethynyl]-1-[(3S,5R)-5-(methoxymethyl)-1-(prop-2-enoyl)pyrrolidin-3-yl]-5-(methylamino)pyrazole-4-carboxamid]	≤ 0.1	–
C=CC(=O)N1C[C@@H](n2nc(C#Cc3cc4ncn(C(F)F)c4cc3F)c(C(N)=O)c2NC)C[C@@H]1COC [Example 77, 3-[2-[1-(Difluoromethyl)-6-fluoro-1,3-benzodiazol-5-yl]ethynyl]-1-[(3S,5R)-5-(methoxymethyl)-1-(prop-2-enoyl)pyrrolidin-3-yl]-5-(methylamino)pyrazole-4-carboxamide]	≤ 0.1	–
C=CC(=O)N1C[C@@H](n2nc(C#Cc3cc4ncn(C)c4c(F)c3Cl)c(C(N)=O)c2NC)C[C@@H]1COC [Example 113, 3-[2-(6-chloro-7-fluoro-1-methyl-1,3-benzodiazol-5-yl)ethynyl]-1-[(3S,5R)-5-(methoxymethyl)-1-(prop-2-enoyl)pyrrolidin-3-yl]-5-(methylamino)pyrazole-4-carboxamide]	≤ 0.1	–
C=CC(=O)N1C[C@@H](n2nc(C#Cc3cc4nc(C)n(C)c4c(F)c3Cl)c(C(N)=O)c2NC)C[C@@H]1COC [Example 128, 3-[2-(6-Chloro-7-fluoro-1,2-dimethyl-1,3-benzodiazol-5-yl)ethynyl]-1-[(3S,5R)-5-(methoxymethyl)-1-(prop-2-enoyl)pyrrolidin-3-yl]-5-(methylamino)pyrazole-4-carboxamide]	≤ 0.1	–
C=CC(=O)N1CC[C@H](n2nc(C#Cc3cc4ncn(C)c4cc3F)c(C(N)=O)c2NC)C1 [Example 139, 3-[2-(6-Fluoro-1-methyl-1,3-benzodiazol-5-yl)ethynyl]-5-(methylamino)-1-[(3S)-1-(prop-2-enoyl)pyrrolidin-3-yl]pyrazole-4-carboxamide]	≤ 0.1	–
C=CC(=O)N1CC[C@H](n2nc(C#Cc3c(F)cc4c(ncn4CC)c3F)c(C(N)=O)c2NCCN2CCOCC2)C1 [Example 112, 3-[2-(1-Ethyl-4,6-difluoro-1,3-benzodiazol-5-yl)ethynyl]-5-[[2-(morpholin-4-yl)ethyl]amino]-1-[(3S)-1-(prop-2-enoyl)pyrrolidin-3-yl]pyrazole-4-carboxamide]	≤ 0.1	–
C=CC(=O)N1CC[C@H](n2nc(C#Cc3cc4ncn(CC)c4c(F)c3F)c(C(N)=O)c2NC)C1 [Example 140, 3-[2-(1-Ethyl-6,7-difluoro-1,3-benzodiazol-5-yl)ethynyl]-5-(methylamino)-1-[(3S)-1-(prop-2-enoyl)pyrrolidin-3-yl]pyrazole-4-carboxamide]	≤ 0.1	–
C=CC(=O)N1C[C@@H](n2nc(C#Cc3cc4nccc(C)c4cc3F)c(C(N)=O)c2NC)C[C@@H]1COC [Example 274, 3-[2-(6-Fluoro-4-methylquinolin-7-yl)ethynyl]-1-[(3S,5R)-5-(methoxymethyl)-1-(prop-2-enoyl)pyrrolidin-3-yl]-5-(methylamino)pyrazole-4-carboxamide]	–	IC50: < 0.1 µM
C=CC(=O)N1C[C@@H](n2nc(C#Cc3c(F)cc4c(nc(C5CC5)n4C)c3F)c(C(N)=O)c2NC)C[C@@H]1COC [Example 50, 3-[2-(2-Cyclopropyl-4,6-difluoro-1-methyl-1,3-benzodiazol-5-yl)ethynyl]-1-[(3S,5R)-5-(methoxymethyl)-1-(prop-2-enoyl)pyrrolidin-3-yl]-5-(methylamino)pyrazole-4-carboxamide]	≤ 0.1	–
C=CC(=O)N1C[C@@H](n2nc(C#Cc3c(Cl)cc4c(nc(C)n4C)c3F)c(C(N)=O)c2NC)C[C@@H]1COC [Example 133, 3-[2-(6-Chloro-4-fluoro-1,2-dimethyl-1,3-benzodiazol-5-yl)ethynyl]-1-[(3S,5R)-5-(methoxymethyl)-1-(prop-2-enoyl)pyrrolidin-3-yl]-5-(methylamino)pyrazole-4-carboxamide]	≤ 0.1	–
C=CC(=O)N1C[C@@H](n2nc(C#Cc3cc4nc(C)n(C5CC5)c4cc3F)c(C(N)=O)c2NC)C[C@@H]1COC [Example 150, 3-[2-(1-Cyclopropyl-6-fluoro-2-methyl-1,3-benzodiazol-5-yl)ethynyl]-1-[(3S,5R)-5-(methoxymethyl)-1-(prop-2-enoyl)pyrrolidin-3-yl]-5-(methylamino)pyrazole-4-carboxamide]	≤ 0.1	–
C=CC(=O)N1C[C@@H](n2nc(C#Cc3ccn4ccnc4n3)c(C(N)=O)c2NC)C[C@@H]1COC [Example 58, 3-(2-[Imidazo[1,2-a]pyrimidin-7-yl]ethynyl)-1-[(3S,5R)-5-(methoxymethyl)-1-(prop-2-enoyl)pyrrolidin-3-yl]-5-(methylamino)pyrazole-4-carboxamide]	–	IC50 [2]: > 0.5 µM
C=CC(=O)N1C[C@@H](n2nc(C#Cc3ccc4c(c3)nc(C(F)(F)F)n4C)c(C(N)=O)c2NC)C[C@@H]1COC [Example 10]	≤ 0.1	–
